{"source": "patent US10945427B2", "about": "“Trehalose and dextran-containing solution for transplanting mammalian cells” (OTSUKA PHARMACEUTICAL FACTORY, INC., priority 2013, dated 2021)", "data": [{"system": "Human mesenchymal stem cells from bone marrow [hMSC-BM]", "test": "Cell survival rate of hMSC-BM preserved in solution for cell transplantation (Trypan blue)", "assay_type": "cell-based", "details": "hMSC-BM preserved for 14 days; saccharide-containing Lactec injection without trehalose or dextran", "experimental": "Human mesenchymal stem cells from bone marrow [hMSC-BM] (from Lonza Co., Ltd.) were prepared according the procedures described in [1] to [8] below and used in the present experiment.\n[1] hMSC-BM were cultured in a 5% CO2 incubator at 37° C. in the presence of a medium kit specific for human mesenchymal stem cells (from Lonza Co., Ltd.) (hereinafter referred to as “MSC medium”) using a 75-cm^2 flask. The state of the cells was observed under a microscope, and culture was performed until a confluent state of about 80% was reached.\n[2] The […] was removed using an aspirator, and hMSC-BM were rinsed with 8 mL/flask of PBS (from Invitrogen Co., Ltd.).\n[4] Swing was carried out in a slow manner while hMSC-BM were observed under a microscope until about 90% thereof were detached.\nCentrifugation was carried out at 600×g and 25° C. for 5 minutes.\n[7] The MSC medium as the supernatant was removed using an aspirator, and 4 mL/flask of PBS (from Invitrogen Co., Ltd.) was added, followed by suspending an hMSC-BM pellet (precipitate).\n[8] 10 μL of the hMSC-BM suspension was taken; the number of the cells was measured using a cell counter; and PBS (from Invitrogen Co., Ltd.) was added thereto to 5×10^5 cells/mL, which was then cooled with ice.\n[1] The hMSC-BM suspension prepared in the step [7] of the “1-1-3 Preparation of Mammalian Cell” described above was dispensed into a 15-mL conical centrifuge tube using […] (100 to 1,000 μL) and centrifuged at 600×g and 25° C. for 5 minutes.\n[2] The supernatant after centrifugation treatment was aspirated/removed, and the resultant was suspended in each of the 11 solutions for cell transplantation and then preserved in a refrigerator (under conditions of 4° C.) for […]. To measure the cell survival rate before preservation, the supernatant after centrifugation treatment was aspirated/removed, and the resultant was then suspended in PBS (from Invitrogen Co., Ltd.), immediately followed by taking a portion (20 μL) of the suspension, mixing the portion with 20 μL of Trypan blue stain solution (from Gibco Co., Ltd.), and then measuring the total number of the cells and the number of dead cells using a cell counter under a microscope to evaluate the rate of living cells (see “P” in FIG. 1).\n[3] After preserving hMSC-BM in the solution for cell transplantation for 14 days, stirring (5 times pipetting at a liquid volume of 500 μL) was gently performed in a state in which the end of a tip was inserted to a position visually at on the order of 5 mm from the bottom to make cells in a suspended state, and a portion (20 μL) of the suspension was taken into a 1.5-mL microtube, mixed with 20 μL of Trypan blue stain solution (from Gibco Co., Ltd.), and then measured for the total number of the cells and the number of dead cells using a cell counter under a microscope to evaluate the rate of living cells.", "values": [{"compound": "OC[C@H]1O[C@@H](O[C@H]2[C@H](O)[C@@H](O)C(O)O[C@@H]2CO)[C@H](O)[C@@H](O)[C@H]1O", "note": "(stereo partly drawn) [lactose]", "effect of saccharide used alone on cell death, FIG. 7": "had not the effect of suppressing cell death"}, {"compound": "OC[C@H]1O[C@H](O[C@H]2[C@H](O)[C@@H](O)[C@H](O)O[C@@H]2CO)[C@H](O)[C@@H](O)[C@@H]1O", "note": "[maltose]", "effect of saccharide used alone on cell death, FIG. 7": "had not the effect of suppressing cell death"}, {"compound": "OC[C@@H](O)[C@@H](O)[C@H](O)[C@H](O)CO", "note": "[mannitol]", "effect of saccharide used alone on cell death, FIG. 7": "had not the effect of suppressing cell death"}, {"compound": "OC[C@H]1O[C@H](OC[C@H]2O[C@H](O[C@]3(CO)O[C@H](CO)[C@@H](O)[C@@H]3O)[C@H](O)[C@@H](O)[C@@H]2O)[C@H](O)[C@@H](O)[C@H]1O", "note": "[raffinose]", "effect of saccharide used alone on cell death, FIG. 7": "had not the effect of suppressing cell death"}, {"compound": "OC[C@@H](O)[C@@H](O)[C@H](O)[C@@H](O)CO", "note": "[sorbitol]", "effect of saccharide used alone on cell death, FIG. 7": "had not the effect of suppressing cell death"}, {"compound": "OC[C@H]1O[C@@](CO)(O[C@H]2O[C@H](CO)[C@@H](O)[C@H](O)[C@H]2O)[C@@H](O)[C@@H]1O", "note": "[sucrose]", "effect of saccharide used alone on cell death, FIG. 7": "had not the effect of suppressing cell death"}]}]}
